Assay results taken from patent publication US20210236468A1, “COMPOSITION FOR PREVENTING OR TREATING CANCER, COMPRISING A VASCULAR DISRUPTING AGENT AND TAXANE COMPOUND” (Chong Kun Dang Pharmaceutical Corp., priority 2018, published 2021).
Marks after values point to notes of the source that are not given here.

Experiments:
A-549 cancer cell lines = test: Anti-cancer activity (tumor volume) in A-549 lung cancer xenograft Balb/c nude mice; assay type: in vivo, human; details: A549 xenograft, docetaxel 2.5 mg/kg ip once a week, CKD-516 4 mg/kg po daily, eight weeks, FIG. 3, FIG. 4
Excerpt: A-549 cancer cell lines (1×10^7 cells), which are human lung cancer cell lines purchased from the ATCC, were subcutaneously injected into the mice. Particularly, a needle point was inserted into mice in the left side before injecting cancer cells, and moved from side to side to inject the cancer cells and to identify that an administered solution was not leaked out, such that a tumorigenesis was observed. Animals whose tumor sizes reached 100 mm^3 to 250 mm^3 were selected and used for an experiment.
Experimental groups were randomly divided as shown in the table 3 above. • Vehicle: Daily for eight weeks, oral administration; • Docetaxel: 2.5 mg/kg, once a week for eight weeks, intraperitoneal administration; • CKD-516: 4 mg/kg, daily for eight weeks, oral administration; and • CKD-516+Docetaxel: CKD-516 (4 mg/kg, daily for eight weeks, oral administration) to be administered first+Docetaxel (2.5 mg/kg, once a week for eight weeks, intraperitoneal administration).
For the tumor volume, statistical processing was performed by using a statistical processing program (GraphPad PRISM® Version 5.0, GraphPad Software, the U.S.).

H1975 cell lines = test: Anti-cancer activity (tumor volume) in H1975 lung cancer xenograft nude mice; assay type: in vivo, human; details: CKD-516 3 mg/kg ip, twice a week for three weeks; for Tumor volume / tumor growth, result in words: FIG. 1, FIG. 2
Description: As a human tumor cell line, a lung cancer cell line, i.e., H1975 cell lines were purchased from the American Type Culture Collections (ATCC). One vial of the cell lines was inserted into an RPMI1640 medium (Gibco, 22400) containing a heatinactivated 10% fetal bovine serum (FBS; Gibco, 10082-742), and cultured in a 5% CO2 incubator at 37° C. The resulting cells were washed with PBS, after which a 10-fold dilution of 2.5% Trypsin-EDTA (Gibco, 15090) was added thereto, such that cells were isolated therefrom. Then, centrifugation was performed (at 1,000 rpm for 5 min), after which supernatant thereof was discarded, such that a cell suspension was obtained by means of a new medium. A survival rate was identified with a microscope to make a preparation in an amount of 1.0×10^7 cells/mL.
The five-week old male […] nude mice (Hsd: Athymic Nude-Foxn1^nu) were purchased from Saeron Bio Inc. (Gyeonggi Province in South Korea).
Thus prepared tumor cell lines were subcutaneously (sc) injected by 0.2 ml (2×10^6 cells) into a back of the mice by using a 26-gauge needle syringe. In about three to four weeks after the injection, animals whose tumor sizes reached 170 mm^3 to 220 mm^3 were selected and used for an experiment.
A comparison between a positive control group and groups dosed with a test substance with regard to a negative control group, and a comparison between the positive control group and the groups dosed with a test substance were verified through One-way ANOVA. At this time, assuming that significance was accepted, a post-hoc test was performed with Duncan test, if an equal variance was accepted, and with Dunnett's test, if the equal variance was not accepted. If p-value is 0.05 or less, significance was accepted, and SPSS 10.1, a statistical program in common use, was used.

H460 cancer cell lines = test: Anti-cancer activity (tumor volume) in H460 lung cancer tissue-transplanted Balb/c nude mice; details: H460 tumor transplant, paclitaxel 20 mg/kg iv, CKD-516 2.5 mg/kg ip, once a week for three weeks, FIG. 5, FIG. 6
Description: The four-week old male Balb/c nude mice were purchased from Central Lab Animal Inc.
In 20 to 25 days later, the mice were subjected to euthanasia by means of cervical vertebral dislocation, after which a solid cancer proliferated in the mice was sterilely isolated therefrom to obtain fresh cancer tissues, from which connective tissues, necrotic tissues, skins, etc. were removed.
The cancer tissues were divided by 50 mg in a sterile state, and subcutaneously transplanted into the mice by using a 16-gauge trocar. In 12 days after the transplantation, the mice whose cancer tissues were proliferated up to a certain size, were selected and used for the experiment.
Paclitaxel was dissolved in an excipient (excipient 2), which was prepared by mixing cremophor, ethanol and saline at a ratio of 1:1:8, and prepared in accordance with the administered dose for each group as shown in the following table 4.
The anti-cancer activity was determined based on a tumor volume. The tumor volume was obtained by measuring a long axis and a short axis of the tumor by means of electronic callipers (CD-15CPX, Mitutoyo Corp., Japan) and calculating measured values according to a following equation (twice a week):
Tumor volume (mm^3)=(Long axis length×Short axis length^2)/2.

[1] = date 4/10, docetaxel 6 mg/kg ip
[2] = date 4/14, docetaxel 6 mg/kg ip
[3] = date 4/17, docetaxel 6 mg/kg ip
[4] = date 4/21, docetaxel 6 mg/kg ip
[5] = date 4/24 (end of experiment), docetaxel 6 mg/kg ip

Compound	Tumor volume / tumor growth, result in words (A-549 cancer cell lines)	Tumor volume (mm^3), mean (H1975 cell lines; date 4/7, docetaxel 6 mg/kg ip) [mm^3]	Tumor volume (mm^3), mean (H1975 cell lines; [1]) [mm^3]	Tumor volume (mm^3), mean (H1975 cell lines; [2]) [mm^3]	Tumor volume (mm^3), mean (H1975 cell lines; [3])	Tumor volume (mm^3), mean (H1975 cell lines; [4])	Tumor volume (mm^3), mean (H1975 cell lines; [5])	Tumor volume / tumor growth, result in words (H1975 cell lines; docetaxel 6 mg/kg ip)	Tumor volume / tumor growth, result in words (H460 cancer cell lines)
CC(=O)O[C@@]12CO[C@@H]1C[C@H](O)[C@@]1(C)C(=O)[C@H](O)C3=C(C)[C@@H](OC(=O)[C@H](O)[C@@H](NC(=O)OC(C)(C)C)c4ccccc4)C[C@@](O)([C@@H](OC(=O)c4ccccc4)[C@H]21)C3(C)C [Docetaxel, docetaxel]	no significant difference in a growth rate of the tumor compared to the negative control group	123.4	178.0	309.6	460.5 mm^3	500.2*** mm^3	513.9*** mm^3	a growth of the tumor was decreased over time compared to the negative control group, but the tumor volume was continuously increased	–
CC(=O)O[C@H]1C(=O)[C@@]2(C)[C@H]([C@H](OC(=O)c3ccccc3)[C@]3(O)C[C@H](OC(=O)[C@H](O)[C@@H](NC(=O)c4ccccc4)c4ccccc4)C(C)=C1C3(C)C)[C@]1(OC(C)=O)CO[C@@H]1C[C@@H]2O [paclitaxel]	–	–	–	–	–	–	–	–	a growth of the tumor was decreased over time compared to the negative control group, but the tumor volume was continuously increased
COc1cc(C(=O)c2ccc(-c3csc(NC(=O)[C@@H](N)C(C)C)n3)cc2-n2cncn2)cc(OC)c1OC [CKD-516, (S)—N-(4-(3-(1H-1,2,4-triazole-1-yl)-4-(3,4,5-trimethoxybenzoyl)phenyl)thiazole-2-yl)-2-amino-3-methylbutanamide]	the tumor did not almost grow	121.8	146.3	321.3	432.4* mm^3	504.9 mm^3	790.7*** mm^3	showed a similar tendency to the group dosed with docetaxel	showed a similar tendency to the group dosed with paclitaxel
